Test results from patent publication US10383880B2 (Reset Therapeutics, Inc., priority 2012, dated 2019).
pEC50: −log10 of the molar value.

The compounds below were run on Per2-dLuc U2OS reporter cells (assay: Per2 assay for evaluating the potency of test compounds (high-throughput circadian assay)). Details: Homo sapiens, U2OS, stable U2OS reporter cells harboring Per2-dLuc; luminescence monitored over 4-5 days at 35° C.
Format: cell-based
How it was run: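 Compounds (0.5% DMSO final) were added right after serum-shock synchronization of Per2-dLuc U2OS reporter cells in minimal medium containing 1.0 mM beetle luciferin. Reporter luminescence was followed at 35 °C for 4–5 days to extract rhythm period, amplitude and phase, and EC50 values were obtained from these.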
`CC1CC(N(CC(O)Cn2c3ccccc3c3ccccc32)S(C)(=O)=O)C1` (stereo not shown) [Compound 131, N-(3-(9H-Carbazol-9-yl)-2-hydroxypropyl)-N-(3-methylcyclobutyl)methanesulfonamide] gave a pEC50 of 7.10. With `CS(=O)(=O)N(CC(O)Cn1c2ccc(F)cc2c2cc(F)ccc21)c1ccc(OC2CC2)cc1` (stereo not shown) [Compound 212, N-(4-Cyclopropoxyphenyl)-N-(3-(3,6-difluoro-9H-carbazol-9-yl)-2-hydroxypropyl)methanesulfonamide] the pEC50 was 5.75. Work on `CN1CCN(CC(C)(O)Cn2c3ccc(F)cc3c3cc(F)ccc32)S1(=O)=O` (stereo not shown) [Compound 174] yielded a pEC50 of 7.10. `CC(O)(CN1CCN(C2CCCC2)S1(=O)=O)Cn1c2ccc(F)cc2c2cc(F)ccc21` (stereo not shown) [Compound 232] gave a pEC50 of 5.59. In the case of `O=S1(=O)CCCCN1CC(O)Cn1c2ccc(F)cc2c2ccc(F)cc21` (stereo not shown) [Compound 100, N-(3-(2,6-Diflouoro-9H-carbazol-9-yl)-2-hydroxypropyl)-1,2-thiazinane 1,1-dioxide], the pEC50 was 7.49. Work on `CS(=O)(=O)N(CC(O)Cn1c2ccccc2c2ccccc21)C1CCCCC1(F)F` (stereo not shown) [Compound 135, N-(3-(9H-Carbazol-9-yl)-2-hydroxypropyl)-N-(2,2-difluorocyclohexyl)methanesulfonamide] yielded a pEC50 of 6.22. Compound `CC1(C)CCN(CC(O)Cn2c3ccc(F)cc3c3cc(F)ccc32)S1(=O)=O` (stereo not shown) [Compound 178, 2-(3-(3,6-Difluoro-9H-carbazol-9-yl)-2-hydroxypropyl)-5,5-dimethylisothiazolidine-1,1-dioxide] has a pEC50 of 7.14. `CS(=O)(=O)N(CC(O)Cn1c2ccc(F)cc2c2cc(F)ccc21)c1ccc(C2CC2)cc1` (stereo not shown) [Compound 207, N-(4-Cyclopropylphenyl)-N-(3-(3,6-difluoro-9H-carbazol-9-yl)-2-hydroxypropyl)methanesulfonamide] showed a pEC50 of 5.53. In the case of `CC1(C)CCC(N(CC(O)Cn2c3ccccc3c3ccccc32)S(C)(=O)=O)CC1` (stereo not shown) [Compound 141, N-(3-(9H-Carbazol-9-yl)-2-hydroxypropyl)-N-(4,4-dimethylcyclohexyl)methanesulfonamide], the pEC50 was 6.07. Compound `CC1(N(CC(O)Cn2c3ccccc3c3ccccc32)S(C)(=O)=O)COC1` (stereo not shown) [Compound 144, N-(3-(9H-Carbazol-9-yl)-2-hydroxypropyl)-N-(3-methyloxetan-3-yl)methanesulfonamide] has a pEC50 of 5.67. For `O=S1(=O)C(F)CCN1CC(O)Cn1c2ccccc2c2ccccc21` (stereo not shown) [Compound 120, 2-(3-(9H-Carbazol-9-yl)-2-hydroxypropyl)-5-fluoro-isothiazolidine-1,1-dioxide], the pEC50 was 7.64. In the case of `COC1CCS(=O)(=O)N(CC(O)Cn2c3ccc(F)cc3c3cc(F)ccc32)C1` (stereo not shown) [Compound 155, N-(3-(3,6-Difluoro-9H-carbazol-9-yl)-2-hydroxypropyl)-4-methoxy-1,2-thiazinane-1,1-dioxide], the pEC50 was 6.49. For `CC(C)S(=O)(=O)N(Cc1ccco1)CC(O)Cn1c2ccccc2c2ccccc21` (stereo not shown) [Compound 82, N-(3-(9H-Carbazol-9-yl)-2-hydroxypropyl)-N-(furan-2-ylmethyl)propane-2-sulfonamide], the pEC50 was 6.80. For `CC1(N(CC(O)Cn2c3ccccc3c3ccccc32)S(C)(=O)=O)CCC1` (stereo not shown) [Compound 138, N-(3-(9H-Carbazol-9-yl)-2-hydroxypropyl)-N-(1-methylcyclobutyl)methanesulfonamide], the pEC50 was 7.39. Compound `CC(C)(C(O)Cn1c2ccc(F)cc2c2cc(F)ccc21)N1CCCS1(=O)=O` (stereo not shown) [Compound 244, 2-(4-(3,6-Difluoro-9H-carbazol-9-yl)-3-hydroxy-2-methylbutan-2-yl)isothiazolidine-1,1-dioxide] has a pEC50 of 7.24. In the case of `O=S1(=O)CCCN1CC(O)Cn1c2ccccc2c2ccccc21` (stereo not shown) [Compound 20, N-(3-(9H-Carbazol-9-yl)-2-hydroxypropyl)isothiazolidine 1,1-dioxide], the pEC50 was 7.54. For `COCCN(CC(O)Cn1c2cc(F)ccc2c2ccc(F)cc21)S(C)(=O)=O` (stereo not shown) [Compound 95, N-(3-(2,7-Difluoro-9H-carbazol-9-yl)-2-hydroxypropyl)-N-(2-methoxyethyl)methanesulfonamide], the pEC50 was 5.56. In the case of `CS(=O)(=O)N(CC(O)Cn1c2ccccc2c2ccccc21)C1(C(F)(F)F)CC1` (stereo not shown) [Compound 145, N-(3-(9H-Carbazol-9-yl)-2-hydroxypropyl)-N-(1-(trifluoromethyl)cyclopropyl)methanesulfonamide], the pEC50 was 5.87. `COC1CN(CC(C)(O)Cn2c3ccc(F)cc3c3cc(F)ccc32)S(=O)(=O)C1` (stereo not shown) [Compound 182, 2-(3-(3,6-Difluoro-9H-carbazol-9-yl)-2-hydroxy-2-methylpropyl)-4-methoxyisothiazolidine-1,1-dioxide] was tested, and the pEC50 was 6.62. `O=S1(=O)CCCN1C[C@@H](O)Cn1c2ccccc2c2ccccc21` [Compound 39, (S)-N-(3-(9H-Carbazol-9-yl)-2-hydroxypropyl)isothiazolidine 1,1-dioxide] gave a pEC50 of 7.68. With `CCN1CCN(CC(C)(O)Cn2c3ccc(F)cc3c3cc(F)ccc32)S1(=O)=O` (stereo not shown) [Compound 219] the pEC50 was 5.80. In the case of `CC(O)(CNS(C)(=O)=O)Cn1c2ccc(F)cc2c2cc(F)ccc21` (stereo not shown) [Compound 152, N-(3-(3,6-Difluoro-9H-carbazol-9-yl)-2-hydroxy-2-methylpropyl)methanesulfonamide], the pEC50 was 5.72. `CC(C)N1CCCN(CC(O)Cn2c3ccc(F)cc3c3cc(F)ccc32)S1(=O)=O` (stereo not shown) [Compound 217, 2-(3-(3,6-Difluoro-9H-carbazol-9-yl)-2-hydroxypropyl)-6-isopropyl-1,2,6-thiadiazinane-1,1-dioxide] gave a pEC50 of 5.78. `CC1CCCCC1N(CC(O)Cn1c2ccccc2c2ccccc21)S(C)(=O)=O` (single isomer, unassigned) [Compound 127, N-(3-(9H-Carbazol-9-yl)-2-hydroxypropyl)-N-(2-methylcyclohexyl)methanesulfonamide] was tested, and the pEC50 was 5.40. Work on `O=S1(=O)Cc2ccccc2CN1CC(O)Cn1c2ccccc2c2ccccc21` (stereo not shown) [Compound 35, N-(3-(9H-Carbazol-9-yl)-2-hydroxypropyl)-3,4-dihydro-1H-benzo[d][1,2]thiazine 2,2-dioxide] yielded a pEC50 of 5.82. For `O=S1(=O)CCCCN1CC(O)Cn1c2cccc(F)c2c2c(F)cccc21` (stereo not shown) [Compound 105, N-(3-(4,5-Difluoro-9H-carbazol-9-yl)-2-hydroxypropyl)-1,2-thiazinane 1,1-dioxide], the pEC50 was 5.28. Compound `CS(=O)(=O)N(CC(O)Cn1c2ccccc2c2ccccc21)c1ccc2ccccc2c1` (stereo not shown) [Compound 48, N-(3-(9H-Carbazol-9-yl)-2-hydroxypropyl)-N-(naphthalen-2-yl)methanesulfonamide] has a pEC50 of 5.82. `O=S(=O)(CC1CCCCO1)N(Cc1ccco1)CC(O)Cn1c2ccccc2c2ccccc21` (stereo not shown) [Compound 18, N-(3-(9H-Carbazol-9-yl)-2-hydroxypropyl)-N-(furan-2-ylmethyl)-1-(tetrahydro-2H-pyran-2-yl)methanesulfonamide] gave a pEC50 of 5.42. With `CS(=O)(=O)N(CC(O)Cn1c2ccccc2c2ccccc21)C1CC2CCC1O2` (single isomer, unassigned) [Compound 140A, N-(3-(9H-Carbazol-9-yl)-2-hydroxypropyl)-N-(7-oxabicyclo[2.2.1]heptan-2-yl)methanesulfonamide] the pEC50 was 6.30. Compound `O=S1(=O)CCCN1CC(O)Cn1c2ccc(F)cc2c2ccc(F)cc21` (stereo not shown) [Compound 101, N-(3-(2,6-Difluoro-9H-carbazol-9-yl)-2-hydroxypropyl)-isothiazolidine-1,1-dioxide] has a pEC50 of 7.30. Work on `CN(CC(O)Cn1c2cc(F)ccc2c2c(F)cccc21)S(C)(=O)=O` (stereo not shown) [Compound 98, N-(3-(2,5-Difluoro-9H-carbazol-9-yl)-2-hydroxypropyl)-N-methylmethanesulfonamide] yielded a pEC50 of 5.09. `O=S(=O)(CC(F)F)N(Cc1ccco1)CC(O)Cn1c2ccccc2c2ccccc21` (stereo not shown) [Compound 8, N-(3-(9H-Carbazol-9-yl)-2-hydroxypropyl)-2,2-difluoro-N-(furan-2-ylmethyl)ethanesulfonamide] was tested, and the pEC50 was 5.16. `CC1CC(N(CC(O)Cn2c3ccc(F)cc3c3cc(F)ccc32)S(C)(=O)=O)C1` (stereo not shown) [Compound 190, N-(3-(3,6-Difluoro-9H-carbazol-9-yl)-2-hydroxypropyl)-N-(3-methylcyclobutyl)methanesulfonamide] gave a pEC50 of 6.68. `CS(=O)(=O)N(CC(O)Cn1c2ccc(F)cc2c2cc(F)ccc21)c1ccc(-c2c[nH]cn2)cc1` (stereo not shown) [Compound 204, N-(4-(1H-Imidazol-4-yl)phenyl)-N-(3-(3,6-difluoro-9H-carbazol-9-yl)-2-hydroxypropyl)methanesulfonamide] was tested, and the pEC50 was 5.59. In the case of `CCCc1ccc(N(CC(O)Cn2c3ccc(F)cc3c3cc(F)ccc32)S(C)(=O)=O)cc1` (stereo not shown) [Compound 200, N-(3-(3,6-Difluoro-9H-carbazol-9-yl)-2-hydroxypropyl)-N-(4-propylphenyl)methanesulfonamide], the pEC50 was 5.72. `CC1(N(CC(O)Cn2c3ccc(F)cc3c3cc(F)ccc32)S(C)(=O)=O)CCCC1` (stereo not shown) [Compound 196, N-(3-(3,6-Difluoro-9H-carbazol-9-yl)-2-hydroxypropyl)-N-(1-methylcyclopentyl)methanesulfonamide] showed a pEC50 of 6.83. `O=S1(=O)N(CC(O)Cn2c3ccc(F)cc3c3cc(F)ccc32)CCN1C1CCCCC1` (stereo not shown) [Compound 233] gave a pEC50 of 6.38. For `CS(=O)(=O)N(CC(O)Cn1c2ccccc2c2ccccc21)C1CCC(F)(F)CC1` (stereo not shown) [Compound 128, N-(3-(9H-Carbazol-9-yl)-2-hydroxypropyl)-N-(4,4-difluorocyclohexyl)methanesulfonamide], the pEC50 was 6.43. With `CS(=O)(=O)N(CC(O)Cn1c2ccccc2c2ccccc21)c1cccnn1` (stereo not shown) [Compound 79, N-(3-(9H-Carbazol-9-yl)-2-hydroxypropyl)-N-(pyridazin-3-yl)methanesulfonamide] the pEC50 was 5.55.

Same assay, conditions: stable U2OS reporter cells harboring Per2-dLuc; luminescence monitored over 4-5 days at 35° C.
With `CS(=O)(=O)N(CC(O)Cn1c2ccccc2c2ccccc21)C1CC2CCC1O2` (single isomer, unassigned) [Compound 140B, N-(3-(9H-Carbazol-9-yl)-2-hydroxypropyl)-N-(7-oxabicyclo[2.2.1]heptan-2-yl)methanesulfonamide] the pEC50 was 6.08.
